Data from publication PMC12751141, “Disrupting α-Synuclein–ClpP interaction restores mitochondrial function and attenuates neuropathology in Parkinson’s disease models” (Molecular Neurodegeneration, 2025).

Experiments:
αSyn monomer = αSyn monomer ELISA, Tet-inducible αSyn SH-SY5Y cells; format: cell-based, human; conditions: vs TAT
Method: After one day incubation with doxycycline (1µM), αSyn tet-on inducible expression SHSY5Y cells were treated with TAT or CS2 peptides at 10 µM for another two days. The level of αSyn monomer released into culture medium was measured using LEGEND MAX human αSyn ELISA kit (448607, Biolegend). The level of extracellular and intracellular αSyn oligomers was measured using human alpha synuclein oligomer ELISA kit (MBS730762, Mybioresource).

[1] = test system: A53T-αSyn PD patient iPSC-derived DA neurons; assay: Immunofluorescence / fractionation western blot in A53T-αSyn iPSC-derived (DA) neurons; format: cell-based, human; conditions: 1 µM, five days
Source text: PD iPS cells lines (αSyn A53T, NN0004337, donor) and its isogenic corrected control line (NN0004344) were obtained from RUCDR Infinite Biologics. The iPS cells were differentiated into dopaminergic neuron-enriched neuronal culture with the protocol described previously. Briefly, iPS cell colonies were disassociated with accutase (Invitrogen), plated onto 6-well plates pre-coated with 2.5% Matrigel (BD Biosciences) and allowed to reach 80% confluence in mTeSR medium (Stem Cell Technology). For the first 10 days, cells were treated with SB431542 (10 µM; Tocris Bioscience) and Noggin (100 ng/ml) in Neural Media (NM) with FGF2 ([…]) and EGF ([…]). NM media contained: Neurobasal and DMEM/F12 (1:1), B-27 Supplement Minus Vitamin A (50×, Invitrogen), N2 Supplement (100X, Invitrogen), GlutaMAX (Invitrogen, 100×), 100 units/ml penicillin and 100 µg/ml streptomycin (Fisher); for the next 4 days, cells were treated with human recombinant Sonic hedgehog (SHH, 200 ng/ml) in neuronal differentiation medium. Neuronal differentiation medium contained Neurobasal and DMEM/F12 (1:3), B27, N2, GlutaMax and PS. In the following 3 days, cells were switched to BDNF (20 ng/ml), ascorbic acid (200 µM, Sigma-Alderich), SHH (200 ng/ml), and FGF8b (100 ng/ml) in neuronal differentiation medium. Thereafter, cells were treated with BDNF, ascorbic acid, GDNF (10 ng/ml), TGF-b (1 ng/ml), and cAMP ([…], Sigma-Aldrich). All growth factors were purchased from Pepro Tech (Rocky Hill, NJ, USA). After 20 days of induction, neurons were treated daily with TAT or CS2 peptides at 1µM and were fixed for immunostaining at 26 days of induction. The imaging was observed by confocal microscope (Fluoview FV3000, Olympus).
Cells were grown on coverslips, fixed with 4% paraformaldehyde for 20 min at room temperature, permeabilized with 0.1% Triton X-100 in PBS, and blocked with 2% normal goat serum. The cells were incubated with the indicated primary antibodies overnight at 4℃. After washing with PBS, the cells were incubated with Alexa Fluor 488/568 or 405/568 secondary antibody (1:500; Thermo Fisher Scientific) for 2 h at room temperature. The nuclei were counterstained with DAPI (1:10000; Sigma-Aldrich). Images of the staining were acquired using a Fluoview FV3000 confocal microscope (Olympus).
Fig. 6 CS2 treatment is protective in DA neurons derived from PD patient iPSCs. (A) Representative images of MitoTracker staining and ClpP-αSyn PLA in A53T αSyn or isogenic control (ISO) iPSCs-derived neurons (scale bar = 30 μm). (B) Representative images of ClpP-αSyn PLA in A53T αSyn or ISO iPSCs-derived neurons, which were treated with TAT or CS2 peptide (scale bar = 30 μm). […] (C) Representative blots of co-immunoprecipitation assay assessing ClpP-αSyn in A53T αSyn or ISO iPSCs-derived neurons, which were treated with TAT or CS2 peptide. […] (D) Representative images of ClpP staining in […] positive (TH^+) iPSCs-derived DA neurons treated with TAT or CS2 peptide (scale bar = 30 μm). […] (E) Representative images of pS129-αSyn (pS129) staining in TH^+ iPSCs-derived DA neurons treated with TAT or CS2 peptide (scale bar = 30 μm). […] (F) Representative images of PSD95, Synapsin1 (SYN1) and MAP2 staining in iPSCs-derived neurons treated with TAT or CS2 peptide (scale bar = 30 μm).
(C) Detergent soluble and insoluble fractions were extracted from iPSC-derived neurons and subjected for western blot analyses. Shown are the representative blots of 3 independent experiments.

mThy1-hSNCA mice = assay: Y-maze test in mThy1-hSNCA mice; format: in vivo, mouse
Method: C57BL/6 N-Tg (Thy1-SNCA)15Mjff/J (JAX: 017682) breeders (C57Bl/6NJ genetic background) were purchased from Jackson Laboratories. The mice were mated, bred, and genotyped in the animal facility of Case Western Reserve University. All mice were maintained at a 12-hour light/dark cycle (on 6 am, off 6 pm). All randomization and peptide treatments in mThy1-hSNCA mice were prepared by an experimenter not associated with the behavioral and neuropathology analysis. Only male mice were used in the study. mThy1-hSNCA transgenic mice and their age-matched WT littermates were implanted with a 28-day subcutaneous osmotic pump (Alzet, Cupertino CA, Model 2004) containing either TAT control peptide or CS2 peptide, which delivered the peptides at indicated rate (1 or 3 or 10 mg/kg/day). The pump was replaced once every four weeks. All mice were sacrificed at age of 10-month for neuropathology assessment.
On the test day, mice at 6-month-old were brought to the testing room one hour before performing the Y-maze test to allow habituation. The mice were placed in the middle of the Y-maze and allowed to explore the three arms for 4-min. During exploration, the arm entries were recorded. The equipment was cleaned after every test to avoid odor disturbance. Spontaneous alternation was defined as a successive entry into three different arms on overlapping triplet sets.
Fig. 7 CS2 treatment is protective in mThy1-hSNCA mouse model of PD. (A) Experimental schematic of CS2 treatment in mThy1-hSNCA (Thy1) mouse model of PD: TAT or CS2 peptide was administered (3 mg/kg/day) via subcutaneous osmotic pump (O.P.) in Thy1 mice and their wild-type (WT) littermates starting from age of 4-month till 10-month. […] (D) Representative images of pS129-αSyn staining in substantia nigra of WT and Thy1 mice treated with TAT or CS2 peptide (scale bar = 100 μm). […] (G) Representative images of ClpP and tyrosine […] (TH) staining on the brain coronal sections from TAT or CS2-treated Thy1 mice and their WT littermates (scale bar = 100 μm). […]

[2] = A53T-αSyn iPSC neurons, n = 6–7

CC(C)[C@H](NC(=O)CNC(=O)CNC(=O)CCCCCNC(=O)[C@H](CCCNC(=N)N)NC(=O)[C@H](CCCNC(=N)N)NC(=O)[C@H](CCCNC(=N)N)NC(=O)[C@H](CCC(N)=O)NC(=O)[C@H](CCCNC(=N)N)NC(=O)[C@H](CCCNC(=N)N)NC(=O)[C@H](CCCCN)NC(=O)[C@H](CCCCN)NC(=O)[C@H](CCCNC(=N)N)NC(=O)CNC(=O)[C@@H](N)Cc1ccc(O)cc1)C(=O)N[C@H](C(=O)N[C@H](C(=O)N[C@@H](C)C(=O)O)[C@@H](C)O)C(C)C [CS2, TAT-C6-GGVVTA]
extracellular αSyn monomer (αSyn monomer; 10 µM, two days, ELISA, n = 4): decreased levels
intracellular αSyn monomer (αSyn monomer): decreased levels
insoluble αSyn accumulation, iPSC neurons ([1]; 3 independent experiments): reduced the expression of pS129-αSyn and the accumulation of insoluble αSyn
pS129-αSyn expression, iPSC DA neurons ([1]; n = 5–7): reduced the expression of pS129-αSyn
ClpP protein level in TH+ DA neurons ([1]; n = 6): significantly restored ClpP protein levels
PSD95 density [1, 2]: restored the density of both PSD95 and Synapsin1
Synapsin1 density [1, 2]: restored the density of both PSD95 and Synapsin1
cognitive activity in Y-maze (mThy1-hSNCA mice; 3 mg/kg/day s.c., age of 6-month, n = 15 mice/group, vs TAT): improved cognitive activity
spontaneous alternation, dose dependence (mThy1-hSNCA mice; 1, 3 or 10 mg/kg/day s.c. osmotic mini pump, 8 weeks from 4 months, tested at 6 months, n = 3 mice/group): improved spontaneous alternation behavior in a dose-dependent manner
spontaneous alternation, 3 vs 10 mg/kg/day (mThy1-hSNCA mice; s.c., 8 weeks, comparison of 3 and 10 mg/kg/day): no significant difference between 3 and 10 mg/kg/day
